For assay [1], the target named is T1, AhR (Homo sapiens, UniProt P35869).
T1 construct: host or cells: HepG2
T1 sequence (P35869 11-848): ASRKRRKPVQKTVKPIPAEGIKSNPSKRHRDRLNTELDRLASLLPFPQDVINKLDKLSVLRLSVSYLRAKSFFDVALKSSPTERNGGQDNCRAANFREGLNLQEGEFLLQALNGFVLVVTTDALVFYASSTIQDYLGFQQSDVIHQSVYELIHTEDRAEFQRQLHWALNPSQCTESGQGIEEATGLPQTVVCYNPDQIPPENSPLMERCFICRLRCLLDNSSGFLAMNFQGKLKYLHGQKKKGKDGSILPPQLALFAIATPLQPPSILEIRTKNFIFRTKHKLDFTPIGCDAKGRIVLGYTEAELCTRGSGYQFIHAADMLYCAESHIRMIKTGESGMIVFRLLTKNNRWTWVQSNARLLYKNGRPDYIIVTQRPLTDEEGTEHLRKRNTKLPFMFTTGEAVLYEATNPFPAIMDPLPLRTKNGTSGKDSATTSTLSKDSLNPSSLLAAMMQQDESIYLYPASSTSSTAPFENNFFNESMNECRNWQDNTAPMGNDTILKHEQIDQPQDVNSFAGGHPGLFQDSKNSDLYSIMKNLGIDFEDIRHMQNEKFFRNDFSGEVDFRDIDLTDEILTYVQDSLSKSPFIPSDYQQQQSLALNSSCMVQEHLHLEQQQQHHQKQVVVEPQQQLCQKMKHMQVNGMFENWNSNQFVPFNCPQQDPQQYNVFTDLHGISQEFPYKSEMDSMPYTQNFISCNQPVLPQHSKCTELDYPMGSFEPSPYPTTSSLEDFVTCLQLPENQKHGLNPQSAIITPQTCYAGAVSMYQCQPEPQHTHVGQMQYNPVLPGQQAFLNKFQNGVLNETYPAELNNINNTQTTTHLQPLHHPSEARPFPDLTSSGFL
As to the kind of experiment: In vitro assay 3: XRE-luciferase reporter assay, agonism in human cell line (HepG2). It is filed as cell-based. Conditions: HepG2 XRE-Luc, tryptophan free medium, test compound alone, 6 hours. The essentials:
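HepG2 cells co-transfected with XRE-firefly luciferase and constitutive Nano-luciferase reporters, plated in tryptophan-free medium with 1% dialyzed FBS, then treated with compound for 6 h at 37 °C. Firefly/Nano-Luc ratio used to derive EC50 by four-parameter nonlinear regression; TCDD as positive control.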

Assay [2] addresses T1, AhR. As to the kind of experiment: In vitro assay 1: XRE-luciferase reporter assay, antagonism in human cell line (HepG2). It is filed as cell-based. Conditions: HepG2 XRE-luciferase, cells treated with kynurenine 200 μM (no *), 6 hours; read-out: Assay 1: AhR-Luc Human Antagonism (IC50). The essentials:
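HepG2 cells carrying XRE-firefly luciferase (transient or stable) plus constitutive Nano-Luc control, stimulated 6 h with kynurenine (50 or 200 μM) with or without compound. Firefly/Nano-Luc ratio normalized to kynurenine-alone (maximum) and vehicle (minimum); IC50 by four-parameter nonlinear regression.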

Structures are written as SMILES. Where two headings read alike, the source gives them in different places.

Take `CC(CO)n1cnc2c(-c3cccnc3)nc(-c3ccc(Cl)cc3)cc2c1=O` (stereo not drawn) [Example 46, 6-(4-chlorophenyl)-3-(1-hydroxypropan-2-yl)-8-(pyridin-3-yl)pyrido[3,4-d]pyrimidin-4(3H)-one]: the EC50 was over 30000 nM in assay [1] (read-out: Assay 3: AhR-Luc Human Agonism (EC50)) and over 10000 nM in assay [1] (read-out: Assay 3: AhR-Luc Human Agonism (EC50, nM), class in brackets). Moreover, the IC50 in assay [2] is under 0.01 µM.

Values taken from patent publication US20230147257A1 (DONG-A ST CO., LTD., priority 2020, published 2023).
